We go through 22 compounds from patent US20240376076A1, “INHIBITORS TARGETING UBIQUITIN SPECIFIC PROTEASE 7 (USP7)” (Dana-Farber Cancer Institute, Inc., priority 2021, published 2024).

Where two headings read alike, the source gives them in different places.

The nature of data set [1]: mouse liver microsomal stability (Microsome Assay Protocol). The conditions noted are these: pH 7.4; mouse liver microsomes, NADPH, 37° C.; read-out: MLM t1/2, min. The data set is classed as in vitro ADME. In outline: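 Compound at 1.5 μM was mixed with 0.75 mg/mL mouse liver microsomes in 0.1 M potassium phosphate, 1.0 mM EDTA, pH 7.4, then started with NADPH from a 6 mM stock after 5 min preincubation at 37 °C. Samples taken at 0, 5, 15, 30 and 45 min were quenched with acetonitrile containing internal standard and analysed by LC/MS.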
Background: Liver microsomes are a subcellular fraction often used to study metabolism.

Data set [2] concerns the target T1, USP7, Active human recombinant protein (Homo sapiens, UniProt Q93009).
T1 construct: purchased CP Lot; 20200225001
The data set is described as follows: USP7 assay (Ubiquitin-Rhodamine 110 enzymatic assay). The data set is classed as biochemical. In short, it runs like this:
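Kinetic 20-min fluorescence read (485/535 nm) of ubiquitin-rhodamine 110 (190 nM final) cleavage by 0.05 nM USP7 gave slopes. Compounds, 10 concentrations in 3-fold steps, had 15 min RT preincubation with enzyme first. Inhibition relative to max (enzyme+substrate) and min (substrate only) signals, fitted to IC50.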

Data set [3] in a line: plasma stability (Plasma Assay Protocol). Particulars: 37° C., t1/2 extrapolated if >50% remaining at 60 min, ∞ if near 100% remaining. The data set is classed as in vitro ADME. As for the experimental part: ND refers to not disclosed.
• 1. Preheated 0.05 M sodium phosphate and 0.07 M NaCl buffer, pH 7.4. Dissolved 14.505 g/L Na2HPO4·12H2O, 1.483 g/L NaH2PO4·2H2O and 4.095 g/L NaCl in deionized water. The basic solution was then titrated with the phosphoric acid to pH 7.40. Stored in fridge up to 7 days. Checked pH on the day of experiment and adjust if outside specification of 7.4+/−0.1. • 2. Plasma preparation: • Thawed frozen plasma by placing at 37° C. quickly. Centrifuged plasma at 3,000 rpm for 8 minutes to remove clots, pipetted and pooled the supernatant as the plasma to be used in the experiment. Checked and recorded the pH of the plasma. Only used plasma within the range of pH 7.4 to pH 8. If higher than pH 8, discarded the plasma. By using a 5% CO2 incubator and PBS buffer, a pH of 7.4 was reached after the 4 hour equilibrium dialysis time. Put the plasma on ice until used. • 3. Tested compounds and reference compounds spiking solution: • 0.5 mM test compounds spiking solution A: Added 10 μL of 10 mM test compounds stock solution to 190 μL DMSO. • 0.02 mM spiking solution B: Added 40 μL of spiking solution A to 960 μL of […] Sodium phosphate buffer with 0.5% BSA.
Pre-warmed the plasma and spiking solution B at 37° C. for 5 min. Added 10 μL of pre-warmed spiking solution B into the wells designated for all the time points (5, 15, 30, 45, 60 min).
For 0-min, added 400 μL of acetonitrile (ACN) containing the internal standard (IS) to the wells of 0-min plate and then added 90 μL of plasma. Added 90 μL of pre-warmed plasma into the wells designated for the time points (0, 5, 15, 30, 45, 60 min), and started timing. At 5, 15, 30, 45, 60 min, added 400 μL of ACN containing IS to the wells of corresponding plates, respectively, to stop the reaction. After quenching, shook the plates at the vibrator (IKA, MTS 2/4) for 10 min (600 rpm/min) and then centrifuged at 5594 g for 15 min (Thermo Multifuge×3R). Transferred 50 μL of the supernatant from each well into a 96-well sample plate containing 50 μL of ultra pure water (Millipore ZMQS50F01) for LC/MS analysis.

T1 sequence (Q93009 whole entry): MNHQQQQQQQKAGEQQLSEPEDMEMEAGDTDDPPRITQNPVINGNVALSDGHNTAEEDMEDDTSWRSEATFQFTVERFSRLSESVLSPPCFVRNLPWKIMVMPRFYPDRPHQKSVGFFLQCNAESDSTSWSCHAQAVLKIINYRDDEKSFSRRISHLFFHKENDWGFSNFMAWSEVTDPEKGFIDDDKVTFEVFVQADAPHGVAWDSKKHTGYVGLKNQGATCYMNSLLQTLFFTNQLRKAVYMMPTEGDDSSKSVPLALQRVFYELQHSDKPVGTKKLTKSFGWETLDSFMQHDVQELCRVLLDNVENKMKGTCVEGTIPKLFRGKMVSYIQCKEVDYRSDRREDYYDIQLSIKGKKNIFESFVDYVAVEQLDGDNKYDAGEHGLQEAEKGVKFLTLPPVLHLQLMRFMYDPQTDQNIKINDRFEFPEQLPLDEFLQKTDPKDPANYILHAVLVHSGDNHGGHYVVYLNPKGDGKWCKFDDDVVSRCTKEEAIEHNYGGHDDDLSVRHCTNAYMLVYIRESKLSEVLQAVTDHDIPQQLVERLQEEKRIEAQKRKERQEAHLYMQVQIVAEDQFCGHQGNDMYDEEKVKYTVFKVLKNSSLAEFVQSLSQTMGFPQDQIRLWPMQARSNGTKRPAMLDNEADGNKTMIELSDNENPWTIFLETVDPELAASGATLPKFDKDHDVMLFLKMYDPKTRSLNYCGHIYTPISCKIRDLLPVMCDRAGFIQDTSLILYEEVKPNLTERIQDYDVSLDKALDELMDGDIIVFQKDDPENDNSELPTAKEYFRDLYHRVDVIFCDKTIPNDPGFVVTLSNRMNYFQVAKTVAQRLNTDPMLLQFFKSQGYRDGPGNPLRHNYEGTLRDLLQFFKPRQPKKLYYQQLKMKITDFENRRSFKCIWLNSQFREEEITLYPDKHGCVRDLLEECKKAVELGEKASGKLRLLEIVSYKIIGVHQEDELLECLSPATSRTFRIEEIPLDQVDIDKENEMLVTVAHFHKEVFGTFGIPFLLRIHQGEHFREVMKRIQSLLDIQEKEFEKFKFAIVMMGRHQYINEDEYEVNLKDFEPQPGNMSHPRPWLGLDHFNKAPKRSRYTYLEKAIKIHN

On to `O=C(CCN1CCNCC1)Nc1ccc2c(=O)n(CC3(O)CCN(C(=O)C(CCCNC(=O)c4ccc5c(Cl)ccnc5c4)Cc4ccccc4)CC3)cnc2c1` (centres unmarked) [Compound 61, N-(4-benzyl-5-(4-hydroxy-4-((4-oxo-7-(3-(piperazin-1-yl)propanamido)quinazolin-3(4H)-yl)methyl)piperidin-1-yl)-5-oxopentyl)-4-chloroquinoline-7-carboxamide], for which the half-life at 1 µM in data set [1] came out at 28.4 min. Further, in data set [2] (read-out: IC50), the IC50 fell in the range of 0.02 to 0.1 µM. The half-life at 2 µM in data set [3] is 193 min.
The matching figures for `CN(C)CCC(=O)Nc1ccc2c(=O)n(CC3(O)CCN(C(=O)C(CCCNC(=O)c4ccc5c(Cl)ccnc5c4)Cc4ccccc4)CC3)cnc2c1` (centres unmarked) [Compound 62]: 12.3 min, 0.02 to 0.1 µM and 194 min.
With `CN(C)CCC(=O)Nc1ccc2c(=O)n(CC3(O)CCN(C(=O)C4CCN(CCNC(=O)c5ccc6c(Cl)ccnc6c5)C[C@H]4c4ccccc4)CC3)cnc2c1` (some centres unmarked) [Compound 73], the half-life at 1 µM in data set [1] was 46.8 min. Moreover, the IC50 in data set [2] (read-out: IC50) fell in the range of 0.02 to 0.1 µM. Besides, the half-life at 2 µM in data set [3] was 191 min.
The matching figures for `CN(C)CCC(=O)Nc1ccc2c(=O)n(CC3(O)CCN(C(=O)[C@@H]4CCN(CCNC(=O)c5ccc6c(Cl)ccnc6c5)C[C@H]4c4ccccc4)CC3)cnc2c1` [Compound 75]: 69.4 min, less than 0.02 µM and 67.4 min.
The matching figures for `CN(C)CCC(=O)Nc1ccc2c(=O)n(CC3(O)CCN(C(=O)C(CCc4ncc(-c5ccc6c(Cl)ccnc6c5)o4)Cc4ccccc4)CC3)cnc2c1` (centres unmarked) [Compound 77]: 1.73 min, 0.02 to 0.1 µM and 161 min.
The matching figures for `CN(C)CCC(=O)Nc1ccc2c(=O)n(CC3(O)CCN(C(=O)C(CCCC(=O)Nc4ccc5c(Cl)ccnc5c4)Cc4ccccc4)CC3)cnc2c1` (centres unmarked) [Compound 78]: 14.6 min, less than 0.02 µM and 77.3 min.
Take `CCc1cc(Cl)c2ccc(C(=O)NCCCC(Cc3ccccc3)C(=O)N3CCC(O)(Cn4cnc5cc(NC(=O)CCN(C)C)ccc5c4=O)CC3)cc2n1` (centres unmarked) [Compound 79]: the half-life at 1 µM in data set [1] came to 10.5 min. Besides, in data set [2] (read-out: IC50), the IC50 lay within 0.02 to 0.1 µM. Further, the half-life at 2 µM in data set [3] was 234 min.
Take `CN(C)CCC(=O)Nc1ccc2c(=O)n(CC3(O)CCN(C(=O)C(CCCNC(=O)c4ccc5c(F)ccnc5c4)Cc4ccccc4)CC3)cnc2c1` (centres unmarked) [Compound 87]: in data set [1], the half-life at 1 µM stood at 23.2 min. The IC50 in data set [2] (read-out: IC50) is less than 0.02 µM. In addition, the half-life at 2 µM in data set [3] is 60.8 min.
The matching figures for `CN(C)CCC(=O)Nc1ccc2c(=O)n(CC3(O)CCN(C(=O)C(CCCNC(=O)c4ccc5c(Cl)c6c(nc5c4)C4CCC6C4)Cc4ccccc4)CC3)cnc2c1` (centres unmarked) [Compound 91]: 2.97 min, 0.02 to 0.1 µM and 335 min.
The corresponding values for `C=CS(=O)(=O)Nc1ccccc1N1CCC(C(=O)N2CCC(O)(Cn3cnc4cc(NC(=O)CCN5CCN(C)CC5)ccc4c3=O)CC2)[C@H](c2ccccc2)C1` (some centres unmarked) [Compound 93] are 14.7 min, less than 0.02 µM and 10.3 min.
The matching figures for `CN1CCN(CCC(=O)Nc2ccc3c(=O)n(CC4(O)CCN(C(=O)C5CCN(c6cccc7c6CN(C#N)C7)C[C@H]5c5ccccc5)CC4)cnc3c2)CC1` (some centres unmarked) [Compound 94]: 30.8 min, 0.1 to 1 µM and 1.31 min.
In the case of `C=CC(=O)Nc1ccccc1N1CCC(C(=O)N2CCC(O)(Cn3cnc4cc(NC(=O)CCN5CCN(C)CC5)ccc4c3=O)CC2)C(c2ccccc2)C1` (centres unmarked) [Compound 102], in data set [1], the half-life at 1 µM stood at 26.9 min. In addition, in data set [2] (read-out: IC50), the IC50 fell in the range of 0.1 to 1 µM. Besides, the half-life at 2 µM in data set [3] was 4.25 min.
Regarding `C=CC(=O)Nc1ccncc1N1CCC(C(=O)N2CCC(O)(Cn3cnc4cc(NC(=O)CCN5CCN(C)CC5)ccc4c3=O)CC2)C(c2ccccc2)C1` (centres unmarked) [Compound 106], the half-life at 1 µM in data set [1] was found to be 39 min. The IC50 is 0.1 to 1 µM in data set [2] (1 h, read-out: IC50, μM (1 h)); less than 0.02 µM in data set [2] (6 h, read-out: IC50, μM (6 h)); less than 0.02 µM in data set [2] (16 h, read-out: IC50, μM (16 h)). Besides, the half-life at 2 µM in data set [3] was 6.8 min.
For the compound `CC(C)c1cnc2cc(C(=O)NCCN3CCC(C(=O)N4CCC(O)(Cn5cnc6cc(OCCN7CCNCC7)ccc6c5=O)CC4)C(c4ccccc4)C3)ccc2c1Cl` (centres unmarked) [Compound 108], in data set [1], the half-life at 1 µM was 14 min. Besides, the IC50 in data set [2] (read-out: IC50) is less than 0.02 µM. In addition, the “Plasma t1/2, min” value in data set [3] is on record as “∞*”.
Take `O=C(NCCN1CCC(C(=O)N2CCC(O)(Cn3cnc4cc(OCCN5CCNCC5)ccc4c3=O)CC2)C(c2ccccc2)C1)c1ccc2c(F)ccnc2c1` (centres unmarked) [Compound 109]: the half-life at 1 µM in data set [1] is 22.4 min. In data set [2] (read-out: IC50), the half-inhibitory concentration (IC50) is less than 0.02 µM. The half-life at 2 µM in data set [3] was 102 min.
In the case of `CN(C)CCOc1cc(F)c2c(=O)n(CC3(O)CCN(C(=O)C4CCN(CCNC(=O)c5ccc6c(Cl)ccnc6c5)CC4c4ccccc4)CC3)cnc2c1` (centres unmarked) [Compound 112], the half-life at 1 µM in data set [1] was 45.3 min. Moreover, the IC50 in data set [2] (read-out: IC50) was 0.1 to 1 µM. The half-life at 2 µM in data set [3] is 305 min.
`CN(C)CCC(=O)Nc1ccc2c(=O)n(CC3(O)CCN(C(=O)[C@H](CCCNC(=O)c4ccc5c(Cl)c6c(nc5c4)CCC6)Cc4ccccc4)CC3)cnc2c1` [Compound 114]: the half-life at 1 µM in data set [1] was found to be 4.13 min. Further, the IC50 in data set [2] (read-out: IC50) is less than 0.02 µM. The half-life at 2 µM in data set [3] is 702 min.
Turning to `CN(C)CCCOc1ccc2c(=O)n(CC3(O)CCN(C(=O)C(CCCNC(=O)c4ccc5c(Cl)cc(C6CC6)nc5c4)Cc4ccccc4)CC3)cnc2c1` (centres unmarked) [Compound 116], the half-life at 1 µM in data set [1] is 27.1 min. The IC50 in data set [2] (read-out: IC50) is less than 0.02 µM. Also, the “Plasma t1/2, min” value in data set [3] is recorded as “∞*”.
The corresponding values for `CN(C)CCOc1ccc2c(=O)n(CC3(O)CCN(C(=O)[C@H](CCCNC(=O)c4ccc5c(Cl)cc(C6CC6)nc5c4)Cc4ccccc4)CC3)cnc2c1` [Compound 117] are 20.3 min, 0.02 to 0.1 µM and “∞*”.
As to `CN1CCN(c2ccc3c(=O)n(CC4(O)CCN(C(=O)[C@H](CCCNC(=O)c5ccc6c(Cl)cc(C7CC7)nc6c5)Cc5ccccc5)CC4)cnc3c2)CC1` [Compound 122], the half-life at 1 µM in data set [1] stood at 3090 min. Besides, in data set [2] (read-out: IC50), the IC50 is 0.02 to 0.1 µM. Also, the half-life at 2 µM in data set [3] is 226 min.
As for `CN(C)C1CCN(c2ccc3c(=O)n(CC4(O)CCN(C(=O)[C@H](CCCNC(=O)c5ccc6c(Cl)cc(C7CC7)nc6c5)Cc5ccccc5)CC4)cnc3c2)CC1` [Compound 123], in data set [1], the half-life at 1 µM was found to be 24.3 min. In addition, the IC50 in data set [2] (read-out: IC50) was less than 0.02 µM. In data set [3], the half-life at 2 µM is 178 min.
Consider `CN1CCC(OCCOc2ccc3c(=O)n(CC4(O)CCN(C(=O)[C@H](CCCNC(=O)c5ccc6c(Cl)cc(C7CC7)nc6c5)Cc5ccccc5)CC4)cnc3c2)CC1` [Compound 132], for which the half-life at 1 µM in data set [1] stood at 6.96 min. Further, the IC50 in data set [2] (read-out: IC50) was 0.02 to 0.1 µM. The “Plasma t1/2, min” value in data set [3] is “∞*”.

Broadly, the IC50 is the concentration that inhibits the measured activity by half.
